Assay results published in US12404260B2, “Pyridine rings containing derivatives as MALT1 inhibitors” (Janssen Pharmaceutica NV, priority 2019, dated 2025).

Legend:
[1] = target: T1, full-length MALT1 protein (Strep-MALT1(1-824)-His) (Homo sapiens, UniProt Q9UDY8); assay: MALT1 Biochemical Protease Assay; details: 10 nM FL MALT1, 200 μM Ac-LRSR-AMC, 50 min pre-incubation, 4 h at RT; read-out: MALT1_Biochemical activity (Ac-LRSR-amc) IC50
T1 construct: full-length MALT1 protein (Strep-MALT1(1-824)-His) purified from baculovirus-infected insect cells; Strep (N); His (C); made in house; host or cells: baculovirus-infected insect cells
T1 sequence (Q9UDY8 1-824): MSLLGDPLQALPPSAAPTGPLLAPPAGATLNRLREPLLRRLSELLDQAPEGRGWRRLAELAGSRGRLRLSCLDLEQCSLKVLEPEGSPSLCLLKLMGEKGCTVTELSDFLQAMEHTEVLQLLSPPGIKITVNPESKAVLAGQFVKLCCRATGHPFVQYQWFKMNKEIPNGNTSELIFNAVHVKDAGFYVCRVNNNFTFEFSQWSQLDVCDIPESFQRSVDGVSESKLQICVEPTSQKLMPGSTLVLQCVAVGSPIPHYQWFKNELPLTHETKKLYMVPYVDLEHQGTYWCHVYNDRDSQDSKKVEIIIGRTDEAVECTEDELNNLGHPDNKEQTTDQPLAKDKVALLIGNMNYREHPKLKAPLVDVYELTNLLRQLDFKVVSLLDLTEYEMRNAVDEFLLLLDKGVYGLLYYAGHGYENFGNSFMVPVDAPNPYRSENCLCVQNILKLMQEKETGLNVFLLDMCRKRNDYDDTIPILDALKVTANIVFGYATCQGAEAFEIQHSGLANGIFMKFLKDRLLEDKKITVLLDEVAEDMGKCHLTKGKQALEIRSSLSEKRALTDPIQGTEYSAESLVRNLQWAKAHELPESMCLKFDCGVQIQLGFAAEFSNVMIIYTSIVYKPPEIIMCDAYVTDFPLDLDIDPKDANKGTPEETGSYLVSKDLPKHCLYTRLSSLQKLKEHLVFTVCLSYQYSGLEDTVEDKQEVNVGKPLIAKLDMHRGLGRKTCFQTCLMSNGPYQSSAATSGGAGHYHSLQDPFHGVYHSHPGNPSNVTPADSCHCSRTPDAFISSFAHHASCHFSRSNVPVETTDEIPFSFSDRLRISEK
Protocol: MALT1 protease activity was assessed in an in vitro assay using a tetrapeptide as substrate and full-length MALT1 protein (Strep-MALT1(1-824)-His) purified from baculovirus-infected insect cells. The tetrapeptide LRSR is coupled to AMC (7-amino-4-methylcoumarin) and provides a quenched, fluorescent substrate for the MALT1 protease (SM Biochemicals). Cleavage of AMC from the Arginine residue results in an increase in coumarin fluorescence measured at 460 nm (excitation 355 nm). The final assay buffer consisted of 10 nM FL MALT1 protein, 200 μM Ac-LRSR-AMC, 50 mM Tris pH 7.5, 0.6 M Citrate, 1 mM DTT, 1 mM EDTA, 0.05% BSA and 1.5% DMSO. Test compounds were spotted at 50 nL in 100% DMSO per well of a black 384-Proxiplate (Perkin Elmer). Test compound concentrations ranged from 30 μM to 0.5 nM using 11 dilution steps (1:3). Background signal was measured from control wells containing assay buffer without enzyme which functions as low control (LC). High control (HC) values were generated using the reaction with enzyme but no compound treatment. Compounds were pre-incubated with MALT1 enzyme for 50 minutes at RT. Substrate was added subsequently and fluorescence was measured in Labsystems fluoroskan at excitation 355 nm and emission 460 nm to determine time 0. The reaction was subsequently incubated for 4 h at RT and fluorescence was measured. For IC50 calculations, timepoint 0 was subtracted from the 4 h timepoint to correct for any potential autofluorescence of the compounds. The enzyme reaction was linear during the 4 h incubation period. Characterization of the substrate Ac-LRSR-AMC determined the Michaelis constant KM at 200 μM.
IC50 values were calculated using the following formula (Z prime should be >0.5): […]
A best-fit curve was fitted by a minimum sum of squares method to the plot of % Controlmin vs. compound concentration. From this an IC50 value (inhibitory concentration causing 50% inhibition) can be obtained. An estimate of the slope of the plot in terms of the Hill coefficient was also obtained.
Used in “Lexis Dose Response Curve Fitting” Version 1.0.

[2] = test system: secretion of IL6 by OCI-LY3 ABC-DLBCL cells; assay: Human IL6 Mesoscale assay (OCI-LY3); assay type: cell-based; details: 24 h incubation, IL6 in supernatant
Protocol: (§1) NFKB signaling regulates the secretion of multiple cytokines, including IL6 and IL10. Secretion of the cytokines IL6 and IL10 by OCI-LY3 ABC-DLBCL cells was measured using a mesoscale assay. Inhibition of NFKB signaling by MALT1 inhibitors results in a decrease of IL6/10 secretion.
(§2) OCI-LY3 cells were propagated in RPMI-1640 (Sigma Aldrich) supplemented with 10% fetal bovine serum (HyClone), 1 mM sodium pyruvate (Invitrogen), 2 mM L-glutamine (Sigma Aldrich) and 1% PenStrep (Sigma Aldrich). Cell passage number should not exceed 30. Cells should be kept between 0.5-2.5 million cells per mL during culturing and cells should be supplemented every 2-3 days with fresh 50 μM beta-mercaptoethanol. No beta-mercaptoethanol was used during the mesoscale assay.
(§3) For the Mesoscale assay, 100,000 OCI-LY3 cells were seeded per well into black-colored 96-well plates with clear bottom (Corning #3904) and test compounds were added in 9 dilution steps (1:2) ranging from 15 μM to 58.6 nM (final DMSO concentration 0.3%). DMSO control wells were used to determine the maximum signal (High Control (HC)). Treatment with the BTK inhibitor RN486 in a dose range from 30 nM to […] (9 dilutions of 1:2) served as a positive control for NFKB pathway inhibition and was used to determine the maximum inhibition (Low Control (LC)). Compounds and cells were incubated for 24 h at 37° C. and 5% CO2 (assay volume is 150 μL). After 24 h of incubation 50 μL of the supernatant was transferred to a MSD plate (V-Plex Proinflammation Panel 1 (human) kit, Mesoscale (MSD)) and incubated for 2 h with vigorous shaking (600 rpm) at room temperature. Following incubation, plates were washed 3× with PBS+0.05% Tween-20 and 25 μL detection antibody solution (IL6 & IL10 antibodies in diluent 3 (MSD)) was added per well followed by 2 h of incubation with vigorous shaking (600 rpm) at room temperature. After 3× washes with PBS+0.05% Tween-20, plates were incubated with 150 μL 2× Read Buffer T and read on SECTOR imager.

[3] = test system: secretion of IL10 by OCI-LY3 ABC-DLBCL cells; assay: Human IL10 Mesoscale assay (OCI-LY3); assay type: cell-based; details: 24 h incubation, IL10 in supernatant
Protocol: as §1, §2, §3

Q: How did the IC50 [1] turn out when `CO[C@@H](C)c1c(Cl)cncc1NC(=O)Nc1cnc(-n2nccn2)c(Cl)c1` [Co. 24] was run?
A: Its IC50 is 4570 nM.

Q: What about the IC50 [2] of the same compound?
A: The IC50 was 5620 nM.

Q: And the IC50 [3]?
A: Its IC50 is 3980 nM.

Q: How did the IC50 [1] turn out when `COC(C)c1c(C#N)cncc1NC(=O)Nc1cnc(-n2nccn2)c(Cl)c1` (stereo not drawn) [Co. 25] was run?
A: The IC50 was 240 nM.

Q: What about the IC50 [2] of the same compound?
A: Its IC50 is 220 nM.

Q: And the IC50 [3]?
A: Its IC50 is 180 nM.

Q: Which IC50 [1] does the source give for `CO[C@@H](C)c1c(C#N)cncc1NC(=O)Nc1cnc(-n2nccn2)c(Cl)c1` [Co. 26] here?
A: The IC50 was 190 nM.

Q: And the IC50 [2]?
A: The IC50 was 260 nM.

Q: What about the IC50 [3] of the same compound?
A: Its IC50 is 120 nM.

Q: For `CO[C@H](C)c1c(C#N)cncc1NC(=O)Nc1cnc(-n2nccn2)c(Cl)c1` [Co. 27], which IC50 [1] is on record?
A: Its IC50 is 2100 nM.

Q: What about the IC50 [2] of the same compound?
A: Its IC50 is 2800 nM.

Q: What about the IC50 [3] of the same compound?
A: The IC50 was 1600 nM.

Q: How did the IC50 [1] turn out when `CCOC(=O)c1cncc(NC(=O)Nc2cnc(-n3nccn3)c(Cl)c2)c1[C@@H](C)OC` [Co. 36] was run?
A: The IC50 was 230 nM.

Q: What about the IC50 [2] of the same compound?
A: The IC50 was 220 nM.

Q: What about the IC50 [3] of the same compound?
A: The IC50 was 140 nM.

Q: With `CCOC(=O)c1cncc(NC(=O)Nc2cnc(-n3nccn3)c(Cl)c2)c1[C@H](C)OC` [Co. 37] as the compound, how does the IC50 [1] read?
A: The IC50 was 1480 nM.

Q: And the IC50 [2]?
A: The IC50 was 2750 nM.

Q: What about the IC50 [3] of the same compound?
A: Its IC50 is 1660 nM.

Q: How did the IC50 [1] turn out when `COC(C)c1c(NC(=O)Nc2cnc(-n3nccn3)c(Cl)c2)cnc(C)c1Br` (stereo not drawn) [Co. 40] was run?
A: Its IC50 is 50 nM.

Q: And the IC50 [2]?
A: Its IC50 is 100 nM.

Q: What about the IC50 [3] of the same compound?
A: Its IC50 is 80 nM.

Q: Which results are given for `COc1c(C)ncc(NC(=O)Nc2cnc(-n3nccn3)c(Cl)c2)c1[C@@H](C)OC` [Co. 42]?
A: IC50 [1]: 540 nM; IC50 [2]: 1100 nM; IC50 [3]: 980 nM

Q: Which IC50 [1] does the source give for `COc1c(C)ncc(NC(=O)Nc2cnc(-n3nccn3)c(Cl)c2)c1[C@H](C)OC` [Co. 43] here?
A: The IC50 was 12000 nM.

Q: And the IC50 [2]?
A: Its IC50 is over 15000 nM.

Q: What about the IC50 [3] of the same compound?
A: The IC50 was over 15000 nM.

Q: Which results are given for `CO[C@H](C)c1c(NC(=O)Nc2cnc(-n3nccn3)c(Cl)c2)cnc(C)c1Br` [Co. 45]?
A: IC50 [1]: 20 nM; IC50 [2]: 60 nM; IC50 [3]: 50 nM

Q: What does the source list for `CO[C@@H](C)c1c(NC(=O)Nc2cnc(-n3nccn3)c(Cl)c2)cnc(C)c1Br` [Co. 46]?
A: IC50 [1]: 580 nM; IC50 [2]: 750 nM; IC50 [3]: 850 nM

Q: What does the source list for `CO[C@H](C)c1c(NC(=O)Nc2cnc(C3CC3)c(C(F)(F)F)c2)cnc(C)c1Br` [Co. 52]?
A: IC50 [1]: 1020 nM; IC50 [2]: 1450 nM; IC50 [3]: 710 nM

Q: Which results are given for `CO[C@@H](C)c1c(NC(=O)Nc2cnc(C3CC3)c(C(F)(F)F)c2)cnc(C)c1Br` [Co. 53]?
A: IC50 [1]: > 30200 nM; IC50 [2]: > 15000 nM; IC50 [3]: > 15000 nM

Q: How did the IC50 [1] turn out when `CO[C@H](C)c1c(NC(=O)Nc2cnc(C3CC3)c(Cl)c2)cnc(C)c1Br` [Co. 55] was run?
A: Its IC50 is 110 nM.

Q: And the IC50 [2]?
A: Its IC50 is 580 nM.

Q: And the IC50 [3]?
A: Its IC50 is 210 nM.

Q: For `CO[C@@H](C)c1c(NC(=O)Nc2cnc(C3CC3)c(Cl)c2)cnc(C)c1Br` [Co. 56], which IC50 [1] is on record?
A: The IC50 was 2510 nM.

Q: What about the IC50 [2] of the same compound?
A: The IC50 was over 15000 nM.

Q: What about the IC50 [3] of the same compound?
A: Its IC50 is 9330 nM.

Q: With `CO[C@H](C)c1c(NC(=O)Nc2cnc(-n3nccn3)c(C(F)(F)F)c2)cnc(C)c1Br` [Co. 58] as the compound, how does the IC50 [1] read?
A: The IC50 was 200 nM.

Q: And the IC50 [2]?
A: The IC50 was 760 nM.

Q: What about the IC50 [3] of the same compound?
A: Its IC50 is 300 nM.
